Measurements published in US11491120B2, “Pharmacological prophylactics against stress-induced affective disorders in females” (The Trustees of Columbia University in the City of New York, priority 2017, dated 2022).
Entries after “also recorded” stand apart in the source; their conditions may differ.

What was measured:
[1] = tested on: female 129S6/SvEv mice; experiment: Forced swim test after 10-day chronic immobilization stress (CIS); format: in vivo, mouse; conditions: 0.025 mg/kg, 1 week prophylactic drug
Protocol: The CIS procedure induces a depressive-like phenotype in test subjects and has both predictive and face validity (54). Here, we used an adapted protocol from Ramirez et al. (55).
As previously tested in male mice (18), we validated our findings in a model of chronic stress. […] Drug dosages were chosen based on results from FIG. 1 and used for the remainder of the project unless otherwise specified. One week later, a 10-day CIS protocol was administered. Subsequently, mice were tested in the FST.

[2] = tested on: male mice; experiment: Prophylactic efficacy in male mice (immobility in the forced swim test); format: in vivo, mouse
[3] = tested on: female 129S6/SvEv mice; experiment: Contextual fear conditioning (CFC), 3-shock, freezing in training and context re-exposure; conditions: for p, Sal vs. drug, Dunnett test: Freezing (Average), Contextual Fear Conditioning Re-exposure / p, Freezing (min 1-5) / p, Freezing (min 2) / p, Freezing (min 3) / p, Freezing (min 4) / p, Freezing (min 5): 1 week prophylactic drug; for p, Freezing (min 1-5) / p, Freezing (min 2) / p, Freezing (min 3) / p, Freezing (min 4) / p, Freezing (min 5): Contextual Fear Conditioning Re-exposure
[4] = 0.025 mg/kg, 24 hours before CFC, female mice
[5] = Dunnett test Sal vs. drug (0.025)
[6] = Dunnett test Sal vs. drug (0.075)
[7] = Dunnett test Sal vs. drug (0.1)
[8] = Dunnett test Sal vs. drug (0.3)

N[C@@]1(c2ccccc2Cl)CCC[C@@H](O)C1=O [(2R,6R)-HNK, (2R,6R)-hydroxynorketamine]
* (significance), Sal vs. drug, Fisher's PLSD: Immobility Time (min 1), Forced Swim Test Day 1 [1]: *** (*** p<0.0001)
* (significance), Sal vs. drug, Fisher's PLSD: Immobility Time (min 1), Forced Swim Test Day 2 [1]: ** (** p<0.01)
* (significance), Sal vs. drug, Fisher's PLSD: Immobility Time (min 2), Forced Swim Test Day 1 [1]: *** (*** p<0.0001)
* (significance), Sal vs. drug, Fisher's PLSD: Immobility Time (min 3), Forced Swim Test Day 1 [1]: *** (*** p<0.0001)
* (significance), Sal vs. drug, Fisher's PLSD: Immobility Time (min 4), Forced Swim Test Day 1 [1]: *** (*** p<0.0001)
* (significance), Sal vs. drug, Fisher's PLSD: Immobility Time (min 5), Forced Swim Test Day 1 [1]: *** (*** p<0.0001)
* (significance), Sal vs. drug, Fisher's PLSD: Immobility Time (min 5), Forced Swim Test Day 2 [1]: * (* p<0.05)
* (significance), Sal vs. drug, Fisher's PLSD: Immobility Time (min 6), Forced Swim Test Day 1 [1]: *** (*** p<0.0001)
* (significance), Sal vs. drug, Fisher's PLSD: Immobility Time (min 6), Forced Swim Test Day 2 [1]: ** (** p<0.01)
* (significance), Sal vs. drug, Fisher's PLSD: Immobility Time Average (min 3-6), Forced Swim Test Day 2 [1]: * (* p<0.05)
* (significance), Sal vs. drug, Fishers PLSD: Immobility Time Average (min 1-6), Forced Swim Test Day 1 [1]: *** (*** p<0.0001)
p, Sal vs. drug, Fisher's PLSD: Immobility Time (min 1), Forced Swim Test Day 1 [1]: <0.0001
p, Sal vs. drug, Fisher's PLSD: Immobility Time (min 1), Forced Swim Test Day 2 [1]: 0.0073
p, Sal vs. drug, Fisher's PLSD: Immobility Time (min 2), Forced Swim Test Day 1 [1]: <0.0001
p, Sal vs. drug, Fisher's PLSD: Immobility Time (min 2), Forced Swim Test Day 2 [1]: 0.8092
p, Sal vs. drug, Fisher's PLSD: Immobility Time (min 3), Forced Swim Test Day 1 [1]: <0.0001
p, Sal vs. drug, Fisher's PLSD: Immobility Time (min 4), Forced Swim Test Day 1 [1]: <0.0001
p, Sal vs. drug, Fisher's PLSD: Immobility Time (min 5), Forced Swim Test Day 1 [1]: <0.0001
p, Sal vs. drug, Fisher's PLSD: Immobility Time (min 5), Forced Swim Test Day 2 [1]: 0.0328
p, Sal vs. drug, Fisher's PLSD: Immobility Time (min 6), Forced Swim Test Day 1 [1]: <0.0001
p, Sal vs. drug, Fisher's PLSD: Immobility Time (min 6), Forced Swim Test Day 2 [1]: 0.0069
p, Sal vs. drug, Fisher's PLSD: Immobility Time Average (min 3-6), Forced Swim Test Day 2 [1]: 0.0177
p, Sal vs. drug, Fishers PLSD: Immobility Time Average (min 1-6), Forced Swim Test Day 1 [1]: <0.0001
Prophylactically effective dose in males [2]: 0.075 mg/kg
p, Sal vs. drug, Dunnett test: Freezing (Average), Contextual Fear Conditioning Re-exposure ([3]; 0.025 mg/kg): 0.4341
Freezing / fear expression during re-exposure vs saline [3, 4]: comparable levels of freezing
Freezing / fear learning during CFC training vs saline [3, 4]: comparable levels of freezing; also recorded: did not alter fear learning
p, Sal vs. drug, Dunnett test: Freezing (Average), Contextual Fear Conditioning Re-exposure ([3]; 0.075 mg/kg): 0.9955
p, Sal vs. drug, Dunnett test: Freezing (Average), Contextual Fear Conditioning Re-exposure ([3]; 0.1 mg/kg): 0.9257
p, Sal vs. drug, Dunnett test: Freezing (Average), Contextual Fear Conditioning Re-exposure ([3]; 0.3 mg/kg): 0.9993
p, Sal vs. drug, Dunnett test: Freezing (Average), Contextual Fear Conditioning Re-exposure ([3]; 2.5 mg/kg): 0.6274
Freezing during 3-shock CFC training vs saline ([3]; 10 mg/kg, 1 week before CFC, female mice): significantly lowered freezing
p, Sal vs. drug, Dunnett test: Freezing (Average), Contextual Fear Conditioning Re-exposure ([3]; 10 mg/kg): 0.9991
Freezing during context re-exposure vs saline ([3]; 3 days before CFC, female mice): do not affect freezing during re-exposure
p, Freezing (min 1-5) [3, 5]: 0.4341
p, Freezing (min 2) [3, 5]: 0.1669
p, Freezing (min 3) [3, 5]: 0.8139
p, Freezing (min 4) [3, 5]: 0.6797
p, Freezing (min 5) [3, 5]: 0.7607
p, Freezing (min 1-5) [3, 6]: 0.9955
p, Freezing (min 2) [3, 6]: >0.9999
p, Freezing (min 3) [3, 6]: 0.9009
p, Freezing (min 4) [3, 6]: 0.9994
p, Freezing (min 5) [3, 6]: 0.9990
p, Freezing (min 1-5) [3, 7]: 0.9257
p, Freezing (min 2) [3, 7]: 0.9990
p, Freezing (min 3) [3, 7]: 0.9333
p, Freezing (min 4) [3, 7]: 0.9679
p, Freezing (min 5) [3, 7]: 0.8119
p, Freezing (min 1-5) [3, 8]: 0.9993
p, Freezing (min 2) [3, 8]: 0.9998
p, Freezing (min 3) [3, 8]: 0.9954
p, Freezing (min 4) [3, 8]: 0.9994
p, Freezing (min 5) [3, 8]: 0.9991
p, Freezing (min 1-5) ([3]; Dunnett test Sal vs. drug (2.5)): 0.6274
